Results: patent publication US10829796B2, “Bacteria identification and antimicrobial susceptibility test” (priority 2015, dated 2020)

System: bacteria in clinical bovine mastitis milk samples
Experiment: Combined bacteria identification and antimicrobial susceptibility test (colour of wells, MIC) on clinical bovine mastitis milk samples
Type: cell-based
Description: Clinical bovine mastitis milk samples were collected by a vet clinic in South Island, New Zealand. Samples were stored in the freezer for several months and shipped frozen to the testing facility. In this Example, the term “clinical” means that dairy cows had clinical symptoms of an udder infection e.g. cow behaved unusual, milk clots, swollen udder among other typical symptoms. Testing was executed in microwell plate comprising of 24 wells (3×8 wells).
In addition, 20 ul of clinical mastitis sample was added to each well with a laboratory pipette.
(§1) Abbreviations • 1. 80 ul GC+10 ul Tell: 80 ul Giolitti Cantoni base broth+10 ul Tellurite solution (1%); • 2. 80 ul TSB/Esc/Fer Cit: 80 ul Tryptic soy broth containing 0.25% Esculin and 0.125% Ammonium Ferric Citrate; • 3. 80 ul TSB/Esc/Fer Cit+10 ul Genta: 80 ul Tryptic soy broth containing 0.25% Esculin and 0.125% Ammonium Ferric Citrate+10 ul of Gentamycin solution 10 mg/ml; • 4. 80 ul McC/PR25: 80 ul MacConkey broth (single strength) containing 0.0125% phenol red; and • 5. 80 ul TSB/PR25: 80 ul Tryptic soy broth containing 0.0125% phenol red. Bacteria Identification
Columns A to C and rows 1 and 2 were used for bacteria identification. A1: coagulase positive Staph; A2: Staphylococci; B1: Strep group D; B2: Strep group D; C1: general enrichment media (gram+ and gram-bacteria); C2: coliform bacteria.
Column A3 to A8: serial dilution of benzyl penicillin as potassium. Column B3 to B8: serial dilution of ceftiofur as hydrochloride. Column C3 to C8: serial dilution of cloxacillin as sodium. Antibiotic concentrations are listed as free form ranging between 4 ug/ml to 0.05 ug/ml.
Minimum inhibitory substance concentration (MIC) is here defined as the concentration if a colour change occurs between two wells (one well remains red with drug concentration 1, the other one yellow with drug concentration 2, whereas drug concentration 1 is larger than drug concentration 2) then the MIC is the value of drug concentration 1.
Table 21 indicates the microwell plate configuration #1; Drugs: Benzylpenicillin as potassium; Cloxacillin as sodium; Ceftiofur as hydrochloride; Drug concentration in each well (A3 to C8) is based on 80 μl composition+10 μl drug solution+20 μl clinical mastitis milk sample and equivalent to listed drug concentration in μg/ml; 20 ul of clinical bovine mastitis milk sample was added to each well (A1 to C8).
In addition, each well received one drop of clinical sample from a transfer pipette which was on average about 35 mg. This was determined through weighing the well plate prior and after the addition of clinical mastitis samples. This weight was then divided by 24.
as §1, with “•” for “Abbreviations •”, “red.” for “red. Bacteria Identification”
Columns A to C and rows 1 and 2 were used for bacteria identification. A1: coagulase positive Staph; A2: Staphylococci; B1: Strep Group D; B2: -; C1: general enrichment media (gram+ and gram-); C2: coliform bacteria.
Column A3 to A8: serial dilution of benzyl penicillin as potassium. Drug concentrations given as free form ranging between 4 ug/ml to 0.05 ug/ml. Column B3 to B8: serial dilution of ceftiofur as hydrochloride. Drug concentrations given as free form ranging between 4 ug/ml to 0.05 ug/ml. Column C3 to C8: serial dilution of cloxacillin as sodium. Drug concentrations given as free form ranging between 4 ug/ml to 0.05 ug/ml.

CO/N=C(\C(=O)N[C@@H]1C(=O)N2C(C(=O)O)=C(CSC(=O)c3ccco3)CS[C@H]12)c1csc(N)n1 [ceftiofur]
Colour of media in each well (ID 1, T = 22 h, 37° C., plate configuration #1, drug 0.05 μg/ml): yellow
Colour of media in each well (ID 1, T = 22 h, 37° C., plate configuration #1, drug 0.1 μg/ml): yellow
Colour of media in each well (ID 1, T = 22 h, 37° C., plate configuration #1, drug 0.5 μg/ml): red
Colour of media in each well (ID 1, T = 22 h, 37° C., plate configuration #1, drug 1 μg/ml): red
Colour of media in each well (ID 1, T = 22 h, 37° C., plate configuration #1, drug 2 μg/ml): red
Colour of media in each well (ID 1, T = 22 h, 37° C., plate configuration #1, drug 4 μg/ml): red
Colour of media in each well (ID 2, T = 48 h, 37° C., plate configuration #1, drug 0.05 μg/ml): yellow
Colour of media in each well (ID 2, T = 48 h, 37° C., plate configuration #1, drug 0.1 μg/ml): yellow
Colour of media in each well (ID 2, T = 48 h, 37° C., plate configuration #1, drug 0.5 μg/ml): yellow
Colour of media in each well (ID 2, T = 48 h, 37° C., plate configuration #1, drug 1 μg/ml): red
Colour of media in each well (ID 2, T = 48 h, 37° C., plate configuration #1, drug 2 μg/ml): red
Colour of media in each well (ID 2, T = 48 h, 37° C., plate configuration #1, drug 4 μg/ml): red
Colour of media in each well (ID 3, T = 22 h, 37° C., plate configuration #1, drug 0.05 μg/ml): red
Colour of media in each well (ID 3, T = 22 h, 37° C., plate configuration #1, drug 0.1 μg/ml): yellow
Colour of media in each well (ID 3, T = 22 h, 37° C., plate configuration #1, drug 0.5 μg/ml): yellow
Colour of media in each well (ID 3, T = 22 h, 37° C., plate configuration #1, drug 1 μg/ml): red
Colour of media in each well (ID 3, T = 22 h, 37° C., plate configuration #1, drug 2 μg/ml): red
Colour of media in each well (ID 3, T = 22 h, 37° C., plate configuration #1, drug 4 μg/ml): red
Colour of media in each well (ID 3, T = 23 h, 37° C., Table 34, drug 0.05 μg/ml): red
Colour of media in each well (ID 3, T = 23 h, 37° C., Table 34, drug 0.1 μg/ml): yellow
Colour of media in each well (ID 3, T = 23 h, 37° C., Table 34, drug 0.5 μg/ml): yellow
Colour of media in each well (ID 3, T = 23 h, 37° C., Table 34, drug 1 μg/ml): red
Colour of media in each well (ID 3, T = 23 h, 37° C., Table 34, drug 2 μg/ml): red
Colour of media in each well (ID 3, T = 23 h, 37° C., Table 34, drug 4 μg/ml): red
Colour of media in each well (ID 3, T~7 h, 37° C., Table 34, drug 0.05 μg/ml): red
Colour of media in each well (ID 3, T~7 h, 37° C., Table 34, drug 0.1 μg/ml): red
Colour of media in each well (ID 3, T~7 h, 37° C., Table 34, drug 0.5 μg/ml): red
Colour of media in each well (ID 3, T~7 h, 37° C., Table 34, drug 1 μg/ml): red
Colour of media in each well (ID 3, T~7 h, 37° C., Table 34, drug 2 μg/ml): red
Colour of media in each well (ID 3, T~7 h, 37° C., Table 34, drug 4 μg/ml): red
Colour of media in each well (ID 3, T~11 h, 37° C., Table 34, drug 0.05 μg/ml): red
Colour of media in each well (ID 3, T~11 h, 37° C., Table 34, drug 0.1 μg/ml): red
Colour of media in each well (ID 3, T~11 h, 37° C., Table 34, drug 0.5 μg/ml): red
Colour of media in each well (ID 3, T~11 h, 37° C., Table 34, drug 1 μg/ml): red
Colour of media in each well (ID 3, T~11 h, 37° C., Table 34, drug 2 μg/ml): red
Colour of media in each well (ID 3, T~11 h, 37° C., Table 34, drug 4 μg/ml): red
Colour of media in each well (ID 4, T = 22 h, 37° C., plate configuration #1, drug 0.05 μg/ml): yellow
Colour of media in each well (ID 4, T = 22 h, 37° C., plate configuration #1, drug 0.1 μg/ml): yellow
Colour of media in each well (ID 4, T = 22 h, 37° C., plate configuration #1, drug 0.5 μg/ml): orange
Colour of media in each well (ID 4, T = 22 h, 37° C., plate configuration #1, drug 1 μg/ml): red
Colour of media in each well (ID 4, T = 22 h, 37° C., plate configuration #1, drug 2 μg/ml): red
Colour of media in each well (ID 4, T = 22 h, 37° C., plate configuration #1, drug 4 μg/ml): red
Colour of media in each well (ID 5, T = 23 h, 37° C., plate configuration #2, drug 0.05 μg/ml): yellow
Colour of media in each well (ID 5, T = 23 h, 37° C., plate configuration #2, drug 0.1 μg/ml): yellow
Colour of media in each well (ID 5, T = 23 h, 37° C., plate configuration #2, drug 0.5 μg/ml): red
Colour of media in each well (ID 5, T = 23 h, 37° C., plate configuration #2, drug 1 μg/ml): red
Colour of media in each well (ID 5, T = 23 h, 37° C., plate configuration #2, drug 2 μg/ml): red
Colour of media in each well (ID 5, T = 23 h, 37° C., plate configuration #2, drug 4 μg/ml): red
Colour of media in each well (ID 5 to 8, T = 0 h (prior incubation, reference), plate configuration #2, drug 0.05 μg/ml): red
Colour of media in each well (ID 5 to 8, T = 0 h (prior incubation, reference), plate configuration #2, drug 0.1 μg/ml): red
Colour of media in each well (ID 5 to 8, T = 0 h (prior incubation, reference), plate configuration #2, drug 0.5 μg/ml): red
Colour of media in each well (ID 5 to 8, T = 0 h (prior incubation, reference), plate configuration #2, drug 1 μg/ml): red
